Reference: article PMC9011347, “Small-Molecule Inhibitors Targeting Lipolysis in Human Adipocytes” (Journal of the American Chemical Society, 2022)

Biological target: T1, human ATGL (Homo sapiens, UniProt Q96AD5)
T1 construct: host or cells: Expi293 cells, crude lysate
T1 sequence (Q96AD5 1-504): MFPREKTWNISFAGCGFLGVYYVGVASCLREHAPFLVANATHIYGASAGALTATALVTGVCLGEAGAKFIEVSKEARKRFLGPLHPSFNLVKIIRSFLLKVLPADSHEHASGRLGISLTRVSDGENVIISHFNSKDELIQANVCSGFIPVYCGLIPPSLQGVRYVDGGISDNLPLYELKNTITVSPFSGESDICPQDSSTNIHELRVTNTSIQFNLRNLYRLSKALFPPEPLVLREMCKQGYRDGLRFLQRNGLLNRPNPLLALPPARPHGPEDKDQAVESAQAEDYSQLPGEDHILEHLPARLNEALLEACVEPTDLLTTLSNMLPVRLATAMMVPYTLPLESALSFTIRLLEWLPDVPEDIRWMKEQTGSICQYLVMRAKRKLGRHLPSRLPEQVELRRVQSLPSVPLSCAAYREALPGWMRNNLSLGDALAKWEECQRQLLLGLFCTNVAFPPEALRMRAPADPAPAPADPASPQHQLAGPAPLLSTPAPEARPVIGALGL
Assay: TAG hydrolase assay, lysates of Expi293 cells overexpressing ATGL, purified CGI-58, radiolabeled triolein
Assay type: biochemical
Conditions: for Ki: NG-497 0.5 μM
Text: We previously developed Atglistatin (Ai), a selective inhibitor of mouse ATGL,[31],[32] which is ineffective against human ATGL.[17] Ai acts as a competitive inhibitor targeting the minimal active domain of ATGL ranging from aa 1–254.[33] This domain is highly conserved in different mammalian species (∼90% identity, Table 1) and comprises the patatin-like domain, eponymous for all members of the patatin-like phospholipase domain-containing (PNPLA) protein family.[34] We first investigated the species selectivity of Ai by performing TAG hydrolase assays[35] with lysates from Expi293 cells expressing ATGL orthologues of different species. The activity of ATGL is strongly stimulated by the co-activator protein comparative gene identification-58 (CGI-58, also known as α/β hydrolase domain containing 5, ABHD5)[36] and can be suppressed by the inhibitory protein G0/G1 switch 2 (G0S2).[37] We therefore determined ATGL activity in the presence and absence of mouse CGI-58, mouse G0S2, and Ai. As shown in Figure 1a–i, all ATGL orthologues were expressed, enzymatically active, stimulated by mouse CGI-58, and inactivated by mouse G0S2. Ai inhibited mouse (Figure 1a), rat (Figure 1b), goat (Figure 1c), dog (Figure 1e), and marmoset ATGL (Figure 1f), but not pig (Figure 1d), rhesus monkey (Figure 1g), or human ATGL (Figure 1h).
To develop an inhibitor for human ATGL, we screened compounds synthesized in the course of the development of Ai.[31] Screenings were performed in the presence of purified CGI-58 using cell lysates of Expi293 cells overexpressing ATGL as a source of enzymatic activity and radiolabeled triolein as substrate as described above (Figure 1). […] In an iterative optimization process, which encompassed the synthesis and testing of >150 compounds (not shown), we varied the nature of the top aryl ring (Figure 2a). Replacement of the top phenyl group with a pyridine moiety (compound 2) led to a significant improvement in inhibitor efficacy (IC50 = 3 μM), which we interpret as a result from a smaller angle between the 1,3-arrangement of the aryl- and the ester-substituents due to the shorter C–N bond length within the pyridine group. […] The introduction of a methoxy residue at this position finally led to compound NG-497 showing an IC50 value of 1 μM.
Experimental details, materials, and methods
Expression of recombinant ATGL constructs and preparation of cell lysates. Expi293 cells were cultivated in Expi293 Expression Medium (GIBCO, Thermo Fisher Scientific, Waltham, USA) at standard conditions (37°C, 5% CO2, 95% humidified atmosphere, 125 rpm). DNA constructs containing ATGL from different species and chimeric ATGL variants in pcDNA3.1(+)myc-His C Vector were obtained from BioCat GmbH (Heidelberg, Germany). Cells were transfected with ExpiFectamine293 Transfection Kit (GIBCO) in Opti-Mem reduced serum medium (GIBCO) according to the manufacturer’s instructions. After 48 h, cells were harvested by centrifugation and washed three times with PBS. Cells were disrupted in buffer A (0.25 M sucrose, 1 mM EDTA, 1 mM dithiothreitol, 20µg/ml leupeptin, 2 µg/ml antipain, 1 µg/ml pepstatin, pH 7.0) by sonication (Virsonic 475, Virtis, Gardiner, USA). Nuclei and debris were removed by centrifugation at 1,000 g and 4°C for 10 min. Protein concentrations were determined using Bio-Rad protein assay (Bio-Rad 785, Bio-Rad Laboratories, Munich, Germany) using BSA as standard.
Expression and purification of mouse CGI-58. CGI-58 was expressed and purified as described 1. In brief, the coding sequence of mouse Cgi-58 was cloned into pHis-Sumo and co-transformed with the plasmid pTf16 expressing the chaperone Tig into E. coli BL21(DE3). Cells were cultured overnight at 37°C and 180 rpm in the presence of 40 µg/ml kanamycin and 34 µg/ml chloramphenicol. Thereafter, cells were transferred into fresh LB medium, grown until OD600 of 0.6, and expression was induced […]
by the addition of 0.5 mM IPTG. […]

**Q.** Which results are given for `CCOc1ccc(-c2cc(OC)cc(C(=O)OC(C)C)n2)cc1` [NG-497]?
**A.** inhibition of ATGL orthologue (NG-497 50 μM, human ATGL): inactivates; inactivation of TAG hydrolase activity of ATGL (PNPLA2) (NG-497 100 μM): inactivated; mechanism of inhibition (Lineweaver–Burk analysis) (increase of apparent Km, Vmax not affected): reversible and competitive inhibition; IC50 (inhibition of TAG hydrolase activity of human ATGL, Expi293 lysates, purified CGI-58, radiolabeled triolein): 1000 nM; Ki (nonlinear regression (GraphPad Prism), Figure 2c): 490 ± 20 nM; Ki (nonlinear regression, varying substrate concentration): 500 nM
